From paper PMC10041525, “New Dual Inhibitors of Bacterial Topoisomerases with Broad-Spectrum Antibacterial Activity and In Vivo Efficacy against Vancomycin-Intermediate Staphylococcus aureus” (Journal of Medicinal Chemistry, 2023)
Read-outs that look alike come from different tables or passages of the source.

System: 100 A. baumannii strains (50 MDR, 50 non-MDR)
Experiment: MIC broth microdilution at IHMA Europe, panel of 100 strains
Format: cell-based
Details: Acinetobacter baumannii, read-out: MIC

Measured: MIC

CO/N=C(\C(=O)N[C@@H]1C(=O)N2C(C(=O)[O-])=C(C[N+]3(C)CCCC3)CS[C@H]12)c1csc(N)n1 [Cefepime, cefepime]
1 µg/mL: A. baumannii IHMA 1790317, Czech Republic 2018, Non-MDR | A. baumannii IHMA 1829500, Georgia 2018, Non-MDR | A. baumannii IHMA 1849829, Kuwait 2018, Non-MDR | A. baumannii IHMA 1857118, Slovenia 2018, Non-MDR | A. baumannii IHMA 1863631, France 2018, Non-MDR | A. baumannii IHMA 1884428, Italy 2018, Non-MDR | A. baumannii IHMA 1884990, Germany 2018, Non-MDR | A. baumannii IHMA 1913773, Kenya 2018, Non-MDR | A. baumannii IHMA 1995161, Czech Republic 2019, Non-MDR | A. baumannii IHMA 1997936, Morocco 2019, Non-MDR | A. baumannii IHMA 1999178, Belgium 2019, Non-MDR | A. baumannii IHMA 2014931, South Africa 2019, Non-MDR | A. baumannii IHMA 2031511, Greece 2019, Non-MDR | A. baumannii IHMA 2034657, Tunisia 2019, Non-MDR | A. baumannii IHMA 2035134, Serbia 2019, Non-MDR | A. baumannii IHMA 2058329, Slovenia 2019, Non-MDR | A. baumannii IHMA 2065587, France 2019, Non-MDR | A. baumannii IHMA 2129256, Qatar 2019, Non-MDR
8 µg/mL: A. baumannii IHMA 1769910, Israel 2018, Non-MDR
> 32 µg/mL: A. baumannii IHMA 1769782, Israel 2018, MDR | A. baumannii IHMA 1791877, Israel 2018, MDR | A. baumannii IHMA 1792961, Jordan 2018, MDR | A. baumannii IHMA 1814276, Lebanon 2018, MDR | A. baumannii IHMA 1815198, Kuwait 2018, MDR | A. baumannii IHMA 1815856, Israel 2018, MDR | A. baumannii IHMA 1849819, Kuwait 2018, MDR | A. baumannii IHMA 1971673, Latvia 2019, MDR | A. baumannii IHMA 1984665, Lithuania 2019, MDR | A. baumannii IHMA 1986738, Turkey 2019, MDR | A. baumannii IHMA 1987162, Croatia 2019, MDR | A. baumannii IHMA 1993615, Turkey 2019, MDR | A. baumannii IHMA 2003279, Turkey 2019, MDR | A. baumannii IHMA 2031524, Greece 2019, MDR | A. baumannii IHMA 2051503, Serbia 2019, MDR | A. baumannii IHMA 2154584, Israel 2020, MDR | A. baumannii IHMA 2155340, Kenya 2020, MDR | A. baumannii IHMA 2156634, Turkey 2020, MDR
4 µg/mL: A. baumannii IHMA 1795669, Tunisia 2018, Non-MDR | A. baumannii IHMA 1830924, United Kingdom 2018, Non-MDR | A. baumannii IHMA 1967860, Spain 2019, Non-MDR | A. baumannii IHMA 2099294, United Kingdom 2019, Non-MDR
0.5 µg/mL: A. baumannii IHMA 1790916, Romania 2018, Non-MDR | A. baumannii IHMA 1900538, Turkey 2018, Non-MDR | A. baumannii IHMA 2019315, Romania 2019, Non-MDR
≤ 0.25 µg/mL: A. baumannii IHMA 1926285, Qatar 2018, Non-MDR
32 µg/mL: A. baumannii IHMA 1926288, Qatar 2018, MDR | A. baumannii IHMA 1963732, Turkey 2019, MDR | A. baumannii IHMA 1983151, Greece 2019, MDR | A. baumannii IHMA 1994284, Italy 2019, MDR | A. baumannii IHMA 2020360, Croatia 2019, MDR | A. baumannii IHMA 2035089, Serbia 2019, MDR | A. baumannii IHMA 2038976, Hungary 2019, MDR
